PubChem BioAssay (NCI)
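Test compounds were applied to cells in 96-well plates for 48 hours at 5 doses. Here, GI50 denotes the concentration required for 50% inhibition of growth. The concentration for full growth arrest is given as TGI.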 Where a SMILES comes first, the peptide text is derived from it. [ ]: non-standard residue; d: D form. The star is where a group is joined. ξ: configuration not given here. ξF = NC(Cc1ccccc1)C(=O)O; Cbz = O=C(OCc1ccccc1)*; Aib = CC(C)(N)C(=O)O

How the values were obtained:
Test in all cases: DTP human tumour cell line panel, 48 h
[1] = tested on: EKVX NSCLC
[2] = tested on: HCT-116 colon
[3] = tested on: HOP-62 NSCLC
[4] = tested on: HOP-92 NSCLC
[5] = tested on: LOX IMVI melanoma
[6] = tested on: NCI-H522 lung
[7] = tested on: OVCAR-4 ovarian
[8] = tested on: RXF 393 renal
[9] = tested on: SF-268 CNS
[10] = tested on: SNB-75 CNS

Row | SMILES | TGI [1] [µM] | TGI [2] [µM] | TGI [3] [µM] | TGI [4] [µM] | TGI [5] [µM] | TGI [6] [µM] | TGI [7] [µM] | TGI [8] [µM] | TGI [9] [µM] | TGI [10] [µM] | GI50 [1] [µM] | GI50 [2] [µM] | GI50 [3] [µM] | GI50 [5] [µM] | GI50 [6] [µM] | GI50 [7] [µM] | GI50 [8] [µM] | GI50 [9] [µM] | GI50 [10] [µM] | GI50 [4] [µM]
1 | CCCCOCc1cc(CN2CCN(C)CC2)c(O)c2ncccc12 | > 100 | 87 | 41.8 | > 100 | > 100 | > 100 | > 100 | > 100 | > 100 | > 100 | – | – | – | – | – | – | – | – | – | –
2 | Cc1ccc(C(O)(c2ccc(C)cc2)c2ccccn2)cc1 | > 100 | > 100 | > 100 | – | > 100 | – | > 100 | – | > 100 | > 100 | – | – | – | – | – | – | – | – | – | –
3 | CC(=O)ON1C(=O)c2cccc3cccc(c23)C1=O | > 100 | 41.7 | 85.4 | > 100 | 57.3 | 43.6 | 40.7 | 25.5 | > 100 | – | – | – | – | – | – | – | – | – | – | –
4 | C(=N\OCCc1ccccc1)/c1cccnc1 | > 100 | > 100 | > 100 | > 100 | – | > 100 | > 100 | > 100 | > 100 | > 100 | – | – | – | – | – | – | – | – | – | –
5 | COC(=O)C(C)(C)NC(=O)C(Cc1ccccc1)NC(=O)C(C)(C)NC(=O)OCc1ccccc1 (stereo not given) (Cbz-[Aib]-[ξF]-[Aib]-OMe) | > 100 | > 100 | > 100 | – | > 100 | > 100 | > 100 | – | > 100 | – | – | – | – | – | – | – | – | – | – | –
6 | NCCSCc1ccccc1Cl | > 100 | > 100 | > 100 | > 100 | 66.1 | > 100 | > 100 | > 100 | > 100 | > 100 | – | – | – | – | – | – | – | – | – | –
7 | Nc1nc2ccc(OCC(O)CN3CCCCC3)cc2[n+]([O-])n1 (stereo not given) | – | > 100 | – | > 100 | – | > 100 | > 100 | > 100 | – | > 100 | – | – | – | – | – | – | – | – | – | –
8 | Nc1c(-c2ccccc2[N+](=O)[O-])nc2ccccn12 | > 100 | > 100 | > 100 | > 100 | > 100 | – | – | > 100 | > 100 | – | – | – | – | – | – | – | – | – | – | –
9 | COc1cc(-c2n/c(=C\c3c(O)[nH]c4cc(Cl)ccc34)cc3c2=Nc2ccccc2-3)cc(OC)c1OC | 27.1 | 13.7 | 5.73 | – | 16 | 18.4 | 6.36 | 7.34 | 10.5 | 25.1 | 4.99 | 3.48 | 2.64 | 2.76 | 3.85 | 2.59 | 2.37 | 2.72 | 5.05 | –
10 | CC(C)(CCCCC(C)(C)C1NC(=O)N1)C1NC(=O)N1 | > 10 | > 10 | > 10 | – | > 10 | > 10 | > 10 | > 10 | > 10 | > 10 | – | – | – | – | – | – | – | – | – | –
11 | c1cncc(O[Si](Oc2cccnc2)(Oc2cccnc2)Oc2cccnc2)c1 | > 100 | – | – | – | > 100 | – | > 100 | > 100 | – | > 100 | – | – | – | – | – | – | – | – | – | –
12 | C[CH2][Ge]([CH2]C)([CH2]C)[O]C(=O)CCC(=O)[O][Ge]([CH2]C)([CH2]C)[CH2]C | > 100 | > 100 | > 100 | > 100 | > 100 | > 100 | > 100 | > 100 | > 100 | – | 20.5 | 57.3 | > 100 | 58 | 45.2 | > 100 | > 100 | > 100 | – | 16.2
